Test systems include HCC-2998 colon; KM12 colon; COLO 205 colon; TK-10 renal; NCI-H522 lung; HOP-92 NSCLC; MOLT-4 leukemia; NCI-H226 lung; SF-539 CNS; UACC-62 melanoma.
Holding throughout (experiment): inhibition of tumour cell growth, NCI panel, 48 h

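Results reflect a 48-hour exposure of cells in 96-well plates to compound at five concentrations. Here, GI50 denotes the concentration required for 50% inhibition of growth. TGI is the concentration that stops growth completely.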

Take `N=C(N)c1ccc(-c2ccc(-c3ccco3)o2)cc1`: the GI50 in the assay with HCC-2998 colon was 1.85 µM; in the assay with KM12 colon, 3.16 µM; in the assay on COLO 205 colon, 1.78 µM; in the assay with TK-10 renal it was 4.33 µM; in the assay with NCI-H522 lung it was 3.73 µM; in the assay on HOP-92 NSCLC it was 1.38 µM. In addition, the GI50 with MOLT-4 leukemia is 3.26 µM; in the assay on NCI-H226 lung, 14.4 µM; in the assay with SF-539 CNS it was 8.96 µM; in the assay with UACC-62 melanoma, 1.82 µM. The TGI in the assay on HCC-2998 colon came to 3.42 µM; with KM12 colon, 10.4 µM; in the assay on COLO 205 colon, 3.48 µM; with TK-10 renal, 15.6 µM; in the assay on NCI-H522 lung it was 14.6 µM; with HOP-92 NSCLC, 4.7 µM. Also, the TGI in the assay with MOLT-4 leukemia came to 10.8 µM; in the assay with NCI-H226 lung, 33.1 µM; in the assay on SF-539 CNS, 21.5 µM; in the assay with UACC-62 melanoma, 3.9 µM.
As to `CC(C)=CCNc1ncnc2c1ncn2C1OC(COP(=O)(O)O)C(O)C1O` (stereo not given), the GI50 in the assay on HCC-2998 colon is 10.7 µM; in the assay with KM12 colon it was 20.1 µM; with COLO 205 colon, 4.59 µM; in the assay on TK-10 renal, 2.06 µM; with NCI-H522 lung, 4.8 µM; with HOP-92 NSCLC it was 1.63 µM. The GI50 with MOLT-4 leukemia is 4.22 µM; with NCI-H226 lung it was 4.7 µM; in the assay with SF-539 CNS, 4 µM; with UACC-62 melanoma, 9.03 µM. For the same compound, the TGI is greater than 100 µM with HCC-2998 colon; greater than 100 µM in the assay with KM12 colon; greater than 58.8 µM with COLO 205 colon; 5.59 µM in the assay on TK-10 renal; 89.4 µM in the assay with NCI-H522 lung; 5.1 µM in the assay with HOP-92 NSCLC. The TGI with MOLT-4 leukemia was greater than 48.5 µM; in the assay with NCI-H226 lung it was 33.9 µM; in the assay with SF-539 CNS, 38.9 µM; in the assay with UACC-62 melanoma it was greater than 100 µM.
Take `COC1=C(C(=O)OC(C)(C)C)C23CCCCC2(C(C(=O)OC(C)(C)C)=C(OC)C3C(=O)OC(C)(C)C)C1C(=O)OC(C)(C)C` (stereo not given): the TGI was greater than 100 µM in the assay on HCC-2998 colon; greater than 100 µM with KM12 colon; 32.8 µM in the assay on COLO 205 colon; greater than 100 µM in the assay on TK-10 renal; greater than 100 µM in the assay with NCI-H522 lung; 89.5 µM in the assay with HOP-92 NSCLC. For the same compound, the TGI was 44.4 µM with MOLT-4 leukemia, greater than 100 µM with NCI-H226 lung, greater than 100 µM in the assay on SF-539 CNS and greater than 100 µM in the assay with UACC-62 melanoma.
As to `COc1cc(OC)c(Oc2cccc(OC)c2OC)c(OC)c1`, the TGI in the assay on HCC-2998 colon, in the assay with KM12 colon, in the assay with COLO 205 colon, in the assay on TK-10 renal, with NCI-H522 lung and with HOP-92 NSCLC was greater than 100 µM in each case. The TGI with MOLT-4 leukemia, with NCI-H226 lung, with SF-539 CNS and in the assay with UACC-62 melanoma was greater than 100 µM each time.
As for `COc1ccc(-n2cc(-c3ccc(Cl)cc3)[nH]c2=S)cc1Cl`, the GI50 in the assay on HCC-2998 colon was 57.4 µM; with KM12 colon, greater than 100 µM; in the assay with COLO 205 colon it was greater than 100 µM; in the assay on TK-10 renal, 47.3 µM; in the assay on NCI-H522 lung, 59.4 µM; in the assay with HOP-92 NSCLC it was 17.2 µM. The GI50 is 43 µM with MOLT-4 leukemia, 23.7 µM with NCI-H226 lung, 19.9 µM in the assay with SF-539 CNS and 83.5 µM with UACC-62 melanoma. Also, the TGI is greater than 100 µM in the assay on HCC-2998 colon; greater than 100 µM in the assay on KM12 colon; greater than 100 µM with COLO 205 colon; greater than 100 µM with TK-10 renal; greater than 100 µM in the assay on NCI-H522 lung; 43.5 µM with HOP-92 NSCLC. Moreover, the TGI with MOLT-4 leukemia is greater than 100 µM; with NCI-H226 lung, 65.6 µM; in the assay with SF-539 CNS, 44.3 µM; in the assay with UACC-62 melanoma, greater than 100 µM.
For the compound `COc1ccc(C2CC(c3cccc(Nc4ccnc5cc(Cl)ccc45)c3)=NN2c2ccccc2)cc1` (stereo not given), the GI50 is 0.535 µM in the assay on HCC-2998 colon; 0.226 µM in the assay on KM12 colon; 1.43 µM in the assay with COLO 205 colon; 3.76 µM in the assay with TK-10 renal; 0.952 µM in the assay with NCI-H522 lung; 3.93 µM in the assay with HOP-92 NSCLC. Further, the GI50 with MOLT-4 leukemia was 0.432 µM; with NCI-H226 lung, 11.3 µM; in the assay with SF-539 CNS, 1.15 µM; with UACC-62 melanoma, 0.051 µM. For the same compound, the TGI in the assay on HCC-2998 colon is 11.5 µM; in the assay with KM12 colon, 19.6 µM; in the assay with COLO 205 colon, 8.66 µM; with TK-10 renal it was 97.2 µM; in the assay on NCI-H522 lung, 13.8 µM; in the assay with HOP-92 NSCLC, 47.6 µM. Moreover, the TGI in the assay on MOLT-4 leukemia was 27.6 µM; in the assay with NCI-H226 lung, 63.8 µM; with SF-539 CNS, 3.25 µM; with UACC-62 melanoma, 11.7 µM.
`COC(=O)CC[C@@H](NC(=O)C(C)NC(=O)COC1C(O)C(COC(=O)CCCCCCCCCCNC(=O)c2ccc([N+](=O)[O-])c3[nH]c4cc(Br)ccc4c(=O)c23)OC(OCc2ccccc2)C1NC(C)=O)C(N)=O` (stereo not given in full): the TGI is 93.2 µM in the assay with HCC-2998 colon; greater than 100 µM in the assay with KM12 colon; greater than 100 µM with COLO 205 colon; greater than 100 µM in the assay with TK-10 renal; greater than 100 µM in the assay with NCI-H522 lung; greater than 100 µM with HOP-92 NSCLC. For the same compound, the TGI in the assay on MOLT-4 leukemia was greater than 100 µM; with NCI-H226 lung, 98 µM; in the assay on SF-539 CNS it was greater than 100 µM; in the assay on UACC-62 melanoma, greater than 100 µM.
Consider `Cc1ccc(NC(=O)C(=O)C2C(=O)C3=C(CC2(C)C)NC2C=CC=CC2S3)c(C)c1` (stereo not given), for which the TGI in the assay on HCC-2998 colon, in the assay on KM12 colon, in the assay on COLO 205 colon, in the assay with TK-10 renal, in the assay with NCI-H522 lung and in the assay on HOP-92 NSCLC was greater than 100 µM throughout. The TGI in the assay on MOLT-4 leukemia, with NCI-H226 lung, in the assay on SF-539 CNS and in the assay with UACC-62 melanoma was greater than 100 µM throughout.
For `O=C(O)/C=C/C(=O)Nc1cccc2c1-c1ccccc1C2=O`, the TGI in the assay with HCC-2998 colon is 71.8 µM; in the assay with KM12 colon it was greater than 100 µM; with COLO 205 colon, 36.1 µM; in the assay on TK-10 renal, greater than 29.7 µM; with NCI-H522 lung it was 26.3 µM; in the assay with HOP-92 NSCLC, greater than 100 µM. The TGI was greater than 100 µM in the assay on MOLT-4 leukemia, greater than 100 µM in the assay on NCI-H226 lung, 19.2 µM in the assay on SF-539 CNS and greater than 100 µM with UACC-62 melanoma.

The record behind these values is PubChem BioAssay (NCI).
